What all share (format): ADME, organism-based, Canis lupus familiaris
The subject of one series is Canis familiaris. The series can be described thus: Pharmacokinetic parameter AUC has been determined in fed Beagle dogs at a dose of 500 mg/kg. Also on record: dose 500 mg/kg. The note with it: dog, in vivo.
Series [1] in a line: Pharmacokinetic parameter half-life was determined in fed Beagle dogs after iv administration of 1.5 mg/kg. Also on record: dose 1.5 mg/kg, route intravenous. Conditions: dog, in vivo.
Series [2] can be described thus: Pharmacokinetic parameter clearance was determined in fed Beagle dogs after iv administration of 1.5 mg/kg. Also on record: dose 1.5 mg/kg, route intravenous. The note with it: dog, in vivo.
A short description of series [3]: Bioavailability in fed Beagle dogs at a dose of 500 mg/kg. Conditions: dog, in vivo.
Series [4] is described as follows: Pharmacokinetic parameter Cmax has been determined in fed Beagle dogs at a dose of 500 mg/kg. Also on record: dose 500 mg/kg. Conditions: dog, in vivo.
Series [5] in a line: Pharmacokinetic parameter volume was determined in fed Beagle dogs after iv administration of 1.5 mg/kg. Also on record: dose 1.5 mg/kg, route intravenous. The note with it: dog, in vivo, read-out: Volume.

The term AUC denotes concentration integrated over time. Low values mean low exposure, high ones high exposure. One may read the half-life as the time in which the quantity being followed falls by half. Low readings indicate fast loss, high ones slow loss. What is called clearance is a measure of how efficiently the substance is removed, as volume per time. A lower clearance goes with a low capacity for elimination. In general, bioavailability refers to dose-corrected exposure relative to a reference, in per cent. A low value points to poor availability. The term Cmax denotes the highest concentration seen after dosing. Consider `C[C@@H]1CC[C@@]2(OC1)O[C@H]1C[C@H]3[C@@H]4CC[C@H]5C[C@@H](O[C@@H]6O[C@H](CO)[C@@H](O[C@@H]7O[C@H](CO)[C@@H](O)[C@H](O)[C@H]7O)[C@H](O)[C@H]6O)CC[C@]5(C)[C@H]4C(=O)C[C@]3(C)[C@H]1[C@@H]2C` [PAMAQUESIDE], for which the AUC in the series on Canis familiaris was found to be 2150 ng·h/mL. In addition, in series [1], the half-life was 4.5 h. In series [2], this molecule gave a clearance of 1.4 mL/min/kg. The bioavailability in series [3] stood at 0.04%. In addition, the Cmax in series [4] was determined as 110 ng/mL. In addition, the Vd in series [5] turned out to be 0.5 L/kg.

The values are drawn from ChEMBL document CHEMBL1129304, “11-Ketotigogenin cellobioside (pamaqueside): a potent cholesterol absorption inhibitor in the hamster” (J Med Chem, 1996).
